# Entries after “also recorded” stand apart in the source; their conditions may differ.
# Legend:
# Type in all cases: cell-based
# [1] = test system: SKOV3 cells; assay: EGFL6-mediated cell proliferation, RGE mutation or Echistatin pretreatment; details: for proliferative effect on cancer cells: RGD-to-RGE mutated EGFL6 vs EGFL6, SKOV3
# Experimental: To determine if EGFL6 signaling on cancer cells is via integrin bind, an EGFL6 protein with an […] mutation (EGFL6^RGE) was generated. […] Similarly, pretreatment of SKOV3 cells with the integrin β1/β3 inhibitor Echistatin blocked both EGFL6-mediated cancer cell proliferation and the decrease in ALDH^+ percentage (FIG. 4B).
# (§1) SKOV3, A2008, and A2780 were maintained in RPMI-1640, supplemented with 10% FBS with 1% Penicillin/Streptomycin, and cultured in humidified atmosphere of 5% CO2 at 37° C. For all in vitro cell culture experiments, isolated cells were allow to recover overnight following FACS, prior to treatment. Infantile Hemangioma Stem cells were maintained in EBM-2 medium with growth factor supplement cocktails in culture plates coated with fibronectin. For Echistatin and EGFL6 treatment, cells were pretreated with Echistatin (Sigma, 100 nM) for 24 hours prior to EGFL6 treatment. All transfections were performed using FuGene6 reagent (Promega) per company protocol.
# [2] = test system: ALDH+ CSCs in SKOV3 cells; assay: ALDH+ cell percentage and number (ALDEFLUOR FACS); details: Echistatin 100 nM pretreatment 24 hours or EGFL6 antibody 5 μg/ml, then EGFL6
# Description: It has been shown that aldehyde dehydrogenase enzymatic activity (ALDH) is an excellent marker of ovarian CSCs in SKOV3 cells and primary patient samples (see, e.g., Silva, I. A., et al. Cancer Res (2011); Landen, C. N., Jr., et al. Mol Cancer Ther 9, 3186-3199 (2010); Steg, A. D., et al. Clin Cancer Res 18, 869-881 (2012); Kryczek, I., et al. Int J Cancer 130, 29-39 (2012); Deng, S., et al. PLoS ONE 5, e10277 (2010)). The impact of EGFL6 treatment on the percentage of ALDH^+ CSCs in vitro was next assessed. […] However, given the increase in total cell numbers, the absolute ALDH^+ CSC number remained unchanged (FIG. 3Aiii). […] Human ovarian cancer ascites cells were also treated with EGFL6 in a tumor sphere assay. Once again, treatment with EGLF6 was associated with a reduction in ALDH^+ cell percentages in tumor spheres (FIG. 3B).
# as §1
# FACS assay was performed as previously described (see, e.g., Silva, I. A., et al. Cancer Res (2011)). Briefly, SKOV3 cells or primary ovarian tumor/ascetics cells were stained for ALDH using ALDEFLUOR kit per company protocol (Stem Cell Technologies). DAPI staining was used to exclude non-viable cells. For FACS cell sorting, equal number of ALDH and ALDH^(−) cells were collected for subsequent experiments.
# EGFL6 monoclonal antibody producing hybridoma cells were maintained in RPMI medium supplemented with 10% FBS. For antibody purification, the cells were cultured in reduced FBS (5%). […]
# [3] = test system: phosphorylation of SHP2, ERK, FAK and SRC in SKOV3 cells; assay: Western blot of EGFL6 mediated signal activation; details: for p-SHP2 levels: treatment of ALDH+ SKOV3 cells
# Experimental: Lastly, EGFL6 mediated signal activation was evaluated. Integrin signaling has been reported to induce the […] of FAK, SRC and SHP2 among others. […] Phosphorylation of all of these proteins could be blocked with Echistatin.
# Cellular signaling changes associated with EGFL6 was next examined. […] EGFL6 treatment was associated with increased p-SHP2 levels specifically in ALDH^+ cells (FIG. 4Ei). […] SHP2 phosphorylation could be blocked with Echistatin (FIG. 4Eiii) or an EGFL6-blocking antibody. SHP2 phosphorylation was associated with increased p-ERK levels (4Ei-iii).
# as §1
# EGFL6 monoclonal antibody producing hybridoma cells were maintained in RPMI medium supplemented with 10% FBS. For antibody purification, the cells were cultured in reduced FBS (5%). Culture supernatant was collected and cell debris was removed by centrifugation. EGFL6 antibody was pulled down using Protein G Agarose heeds, Fast Flow (Millipore), washed and eluded with 50 mM glycine PH.2.7. Antibody solution was immediately neutralized to PH 7.2-7.4 with Tris (Ph 9.0, final concentration 25 mM). NaCl was added to final concentration of 150 mM. EGFL6 antibody was applied at 5 μg/ml for in vitro cell treatment and 50 μg/mouse for in vivo treatment.
Molecule,"blockade of EGFL6-mediated cancer cell proliferation ([1]; Echistatin pretreatment, SKOV3)",blockade of EGFL6-mediated reduction in ALDH+ cell percentages [2],"blockade of EGFL6-induced phosphorylation of SHP2, FAK and SRC ([3]; Echistatin pretreatment)",blockade of EGFL6-mediated ERK phosphorylation ([3]; with EGFL6 treatment),blockade of EGFL6-mediated SHP2 phosphorylation ([3]; with EGFL6 treatment),proliferative effect on cancer cells [1],proliferative effect on cancer cells ([1]; listed as EGFL6-RGE mutant),p-SHP2 levels [3],p-SHP2 levels ([3]; listed as EGFL6-RGE mutant),p-ERK levels ([3]; treatment of ALDH+ and ALDH(−) cells)
Echistatin [reference compound],blocked,inhibited the effect of EGFL6; also recorded: blocked; also recorded: inhibits,blocked,suppressed,blocked; also recorded: suppressed,–,–,–,–,–
EGFL6^RGE: EGFL6 protein with an RGD-to-RGE mutation of the integrin binding motif (protein) NAASARHHGLLASARQPGVCHYGTKLACCYGWRRNSKGVCEATCEPGCKFGECVGPNKCRCFPGYTGKTCSQDVNECGMKPRPCQHRCVNTHGSYKCFCLSGHMLMPDATCVNSRTCAMINCQYSCEDTEEGPQCLCPSSGLRLAPNGRDCLDIDECASGKVICPYNRRCVNTFGSYYCKCHIGFELQYISGRYDCIDINECTMDSHTCSHHANCFNTQGSFKCKCKQGYKGNGLRCSAIPENSVKEVLRAPGTIKDRIKKLLAHKNSMKKKAKIKNVTPEPTRTPTPKVNLQPFNYEEIVSRGGNSHGGKKGNEEKMKEGLEDEKREEKALKNDIEERSLRGEVFFPKVNEAGEFGLILVQRKALTSKLEHKDLNISVDCSFNHGICDWKQDREDDFDWNPADRDNAIGFYMAVPALAGHKKDIGRLKLLLPDLQPQSNFCLLFDYRLAGDKVGKLRVFVKNSNNALAWEKTTSEDEKWKTGKIQLYQGTDATKSIIFEAERGKGKTGEIAVDGVLLVSGLCPDSLLSVDD,–,–,–,–,–,eliminated the proliferative effects,suppressed,did not increase,does not increase,does not increase

# — US9850300B2, “Compositions and methods relating to inhibiting cancer cell growth and/or proliferation” (The Regents of the University of Michigan, priority 2013, dated 2017)
